Measured values from ChEMBL document CHEMBL1201862, “PubChem BioAssay data set” (2004).
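Grown in 96-well plates, cells were treated for 48 hours with each compound at five concentrations. Insufficient inhibition: endpoint recorded as highest concentration tested. GI50 = concentration required for 50% inhibition of growth.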 Activity calls are given as the source filed them. Rule as the data show it: active = GI50 up to about 1.1 µM and inactive = higher.

Legend:
Experiment in all cases: inhibition of tumour cell growth, NCI panel, 48 h
[1] = system: OVCAR-4
[2] = system: A549
[3] = system: MDA-MB-231
[4] = system: SF-539
[5] = system: M14
[6] = system: ACHN
[7] = system: SK-MEL-2
[8] = system: UACC-257
[9] = system: HT-29
[10] = system: SW-620
[11] = system: NCI-H522
[12] = system: A498
[13] = system: SNB-19
[14] = system: SK-OV-3
[15] = system: SN12C
[16] = system: MCF7
[17] = system: DU-145
[18] = system: HOP-92
[19] = system: HCT-116
[20] = system: 786-0
[21] = system: KM12
[22] = system: RPMI-8226
[23] = system: T47D
[24] = system: OVCAR-8
[25] = system: IGROV-1
[26] = system: EKVX
[27] = system: SK-MEL-5
[28] = system: NCI/ADR-RES
[29] = system: TK-10
[30] = system: HCT-15
[31] = system: Hs-578T
[32] = system: OVCAR-5
[33] = system: MDA-N
[34] = system: NCI-H23
[35] = system: U-251
[36] = system: UO-31
[37] = system: CCRF-CEM
[38] = system: CAKI-1
[39] = system: SNB-75
[40] = system: SK-MEL-28
[41] = system: MOLT-4
[42] = system: OVCAR-3
[43] = system: PC-3
[44] = system: K562
[45] = system: UACC-62
[46] = system: LOX IMVI
[47] = system: COLO 205
[48] = system: SF-295
[49] = system: NCI-H460
[50] = system: HCC 2998
[51] = system: NCI-H226
[52] = system: BT-549
[53] = system: HL-60
[54] = system: MDA-MB-435
[55] = system: SF-268
[56] = system: HOP-62
[57] = system: RXF 393
[58] = system: Malme-3M

## CC(=O)/C(=C/NC(=S)c1cccnc1)C(=O)Nc1ccccc1C
[1]
  GI50: > 100 µM (inactive)
[2]
  GI50: > 100 µM (inactive)
[3]
  GI50: > 100 µM (inactive)
[4]
  GI50: 30.9 µM (inactive)
[5]
  GI50: > 100 µM (inactive)
[6]
  GI50: > 100 µM (inactive)
[7]
  GI50: > 100 µM (inactive)
[8]
  GI50: > 100 µM (inactive)
[9]
  GI50: > 100 µM (inactive)
[10]
  GI50: > 100 µM (inactive)
[11]
  GI50: 96.6 µM (inactive)
[12]
  GI50: > 100 µM (inactive)
[13]
  GI50: > 100 µM (inactive)
[14]
  GI50: > 100 µM (inactive)
[15]
  GI50: > 100 µM (inactive)
[16]
  GI50: > 100 µM (inactive)
[17]
  GI50: > 100 µM (inactive)
[18]
  GI50: > 100 µM (inactive)
[19]
  GI50: 83 µM (inactive)
[20]
  GI50: > 100 µM (inactive)
[21]
  GI50: > 100 µM (inactive)
[22]
  GI50: > 100 µM (inactive)
[23]
  GI50: > 100 µM (inactive)
[24]
  GI50: 52.6 µM (inactive)
[25]
  GI50: > 100 µM (inactive)
[26]
  GI50: > 100 µM (inactive)
[27]
  GI50: > 100 µM (inactive)
[28]
  GI50: 97.5 µM (inactive)
[29]
  GI50: > 100 µM (inactive)
[30]
  GI50: > 100 µM
[31]
  GI50: > 100 µM (inactive)
[32]
  GI50: > 100 µM (inactive)
[33]
  GI50: > 100 µM (inactive)
[34]
  GI50: > 100 µM (inactive)
[35]
  GI50: 71.9 µM (inactive)
[36]
  GI50: > 100 µM (inactive)
[37]
  GI50: > 100 µM (inactive)
[38]
  GI50: 41.3 µM (inactive)
[39]
  GI50: > 100 µM (inactive)
[40]
  GI50: > 100 µM (inactive)
[41]
  GI50: > 100 µM (inactive)
[42]
  GI50: 82.6 µM (inactive)
[43]
  GI50: 68.9 µM (inactive)
[44]
  GI50: > 100 µM (inactive)
[45]
  GI50: > 100 µM (inactive)
[46]
  GI50: > 100 µM (inactive)
[47]
  GI50: > 100 µM (inactive)
[48]
  GI50: > 100 µM (inactive)
[49]
  GI50: > 100 µM (inactive)
[50]
  GI50: > 100 µM (inactive)
[51]
  GI50: > 100 µM (inactive)
[52]
  GI50: > 100 µM (inactive)
[53]
  GI50: 2.37 µM (inactive)
[54]
  GI50: > 100 µM (inactive)
[55]
  GI50: > 100 µM (inactive)
[56]
  GI50: > 100 µM (inactive)
[57]
  GI50: > 100 µM (inactive)

## Cc1cnc(-n2c(C)nc3cc(Cl)ccc3c2=O)s1
[58]
  GI50: 67.9 µM (inactive)
[1]
  GI50: 58.5 µM (inactive)
[2]
  GI50: 32.7 µM (inactive)
[3]
  GI50: 42.5 µM (inactive)
[4]
  GI50: 20.7 µM (inactive)
[5]
  GI50: 31.6 µM (inactive)
[6]
  GI50: 31 µM (inactive)
[7]
  GI50: 25.4 µM (inactive)
[8]
  GI50: 29.1 µM (inactive)
[9]
  GI50: 32.7 µM (inactive)
[10]
  GI50: 43 µM (inactive)
[11]
  GI50: 22 µM (inactive)
[12]
  GI50: 20.4 µM (inactive)
[13]
  GI50: 35.1 µM (inactive)
[14]
  GI50: > 100 µM (inactive)
[15]
  GI50: 34.2 µM (inactive)
[16]
  GI50: 17.9 µM (inactive)
[17]
  GI50: 25.6 µM (inactive)
[18]
  GI50: 47.6 µM (inactive)
[19]
  GI50: 22 µM (inactive)
[20]
  GI50: 24.5 µM (inactive)
[21]
  GI50: 21.8 µM (inactive)
[23]
  GI50: 21.3 µM (inactive)
[24]
  GI50: 45.7 µM (inactive)
[25]
  GI50: 40 µM (inactive)
[26]
  GI50: 11.1 µM (inactive)
[27]
  GI50: 16 µM (inactive)
[28]
  GI50: 28 µM (inactive)
[29]
  GI50: 43.1 µM (inactive)
[30]
  GI50: 26.2 µM
[31]
  GI50: 74.6 µM (inactive)
[32]
  GI50: 56.4 µM (inactive)
[33]
  GI50: 13 µM (inactive)
[34]
  GI50: 23.3 µM (inactive)
[35]
  GI50: 30.5 µM (inactive)
[36]
  GI50: 1.28 µM (inactive)
[37]
  GI50: 31.5 µM (inactive)
[38]
  GI50: 64.3 µM (inactive)
[39]
  GI50: 10.6 µM (inactive)
[40]
  GI50: 49.7 µM (inactive)
[41]
  GI50: 30.8 µM (inactive)
[42]
  GI50: 45.6 µM (inactive)
[43]
  GI50: 27.9 µM (inactive)
[44]
  GI50: 31.1 µM (inactive)
[45]
  GI50: 23.2 µM (inactive)
[46]
  GI50: 41.6 µM (inactive)
[47]
  GI50: 19 µM (inactive)
[48]
  GI50: 37.1 µM (inactive)
[49]
  GI50: 30.2 µM (inactive)
[50]
  GI50: 26.5 µM (inactive)
[51]
  GI50: 32 µM (inactive)
[52]
  GI50: 28.4 µM (inactive)
[53]
  GI50: 26 µM (inactive)
[54]
  GI50: 28.1 µM (inactive)
[55]
  GI50: 44.1 µM (inactive)
[56]
  GI50: > 100 µM (inactive)
